Biological target: T1, FSHR (Homo sapiens, UniProt P23945)
T1 construct: expressed in transfected cells; host or cells: CHO (Cho-FSHR-LUC-1-1-43)
Experiment: EC50 of cyclic AMP production in CHO FSHR cells + EC20 FSH (Assay A)
Assay type: cell-based
Settings: CHO FSHR cells + EC20 FSH; Table 2; read-out: Assay A EC50 of cyclic AMP production
Method in brief: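 cAMP HTRF ratio (665/620 nm) read after 1 h, 37 °C exposure of CHO-FSHR cells to compound in presence of EC20 FSH ([…]) and IBMX 200 μM. Responses given relative to FSH standard maximum; EC50 derived.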

T1 sequence (P23945 18-695): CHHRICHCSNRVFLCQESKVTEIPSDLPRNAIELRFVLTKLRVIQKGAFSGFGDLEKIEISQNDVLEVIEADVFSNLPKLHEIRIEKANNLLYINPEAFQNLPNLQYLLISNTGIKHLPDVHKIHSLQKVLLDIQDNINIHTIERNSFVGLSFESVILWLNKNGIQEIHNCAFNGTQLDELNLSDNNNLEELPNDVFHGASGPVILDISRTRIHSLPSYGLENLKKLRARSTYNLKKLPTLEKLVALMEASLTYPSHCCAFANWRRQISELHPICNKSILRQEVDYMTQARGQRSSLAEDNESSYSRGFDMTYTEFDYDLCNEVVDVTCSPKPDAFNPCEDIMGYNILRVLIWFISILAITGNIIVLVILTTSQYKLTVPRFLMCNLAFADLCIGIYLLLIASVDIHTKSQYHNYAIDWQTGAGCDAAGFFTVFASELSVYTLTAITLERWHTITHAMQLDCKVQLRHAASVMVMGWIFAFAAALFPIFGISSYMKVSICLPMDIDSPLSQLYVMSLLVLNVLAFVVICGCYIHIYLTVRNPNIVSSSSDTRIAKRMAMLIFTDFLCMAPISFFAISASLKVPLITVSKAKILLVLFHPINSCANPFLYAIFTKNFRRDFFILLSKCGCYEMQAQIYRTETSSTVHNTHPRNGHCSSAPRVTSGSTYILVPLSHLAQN
T1 sequence (P01215 25-116 partner): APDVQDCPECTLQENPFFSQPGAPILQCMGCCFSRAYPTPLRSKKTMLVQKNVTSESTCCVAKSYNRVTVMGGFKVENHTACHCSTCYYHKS
T1 sequence (P01225 19-129 partner): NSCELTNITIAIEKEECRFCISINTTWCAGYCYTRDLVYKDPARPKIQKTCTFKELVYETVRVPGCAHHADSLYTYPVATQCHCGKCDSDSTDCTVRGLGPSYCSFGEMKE

SMILES: Cc1ccccc1N(C)C1CCN(c2ccc(C(=O)NCCCN3CCCC3=O)cc2NC(=O)c2coc(C3CC3)n2)CC1 [Compound 405]
- EC50: 100 to 1000 nM

SMILES: Cc1ccccc1N1CCN(c2ccc(C(=O)NCCCN3CCOCC3)cc2NC(=O)c2coc(C3CC3)n2)CC1 [Compound 406]
- EC50: 100 to 1000 nM

SMILES: CN(c1ccccc1)C1CCN(c2ccc(C(=O)NCCCN3CCCC3=O)cc2NC(=O)c2coc(C3CC3)n2)CC1 [Compound 407]
- EC50: > 10000 nM

SMILES: Cc1ccccc1N1CCN(c2ccc(C(=O)NCCc3cccc(CN(C)C)c3)cc2NC(=O)c2coc(C3CC3)n2)CC1 [Compound 408]
- EC50: 100 to 1000 nM

SMILES: Cc1ccccc1N1CCN(c2ccc(C(=O)Nc3ccc(C(C)(C)C#N)cc3)cc2NC(=O)c2coc(C3CC3)n2)CC1 [Compound 409]
- EC50: > 10000 nM

SMILES: Cc1ccccc1N1CCN(c2ccc(C(=O)NCCc3ccccc3C(N)=O)cc2NC(=O)c2coc(C3CC3)n2)CC1 [Compound 411]
- EC50: 100 to 1000 nM

SMILES: Cc1ccccc1N1CCN(c2ccc(C(=O)Nc3ccnn3CC3CCOC3)cc2NC(=O)c2coc(C3CC3)n2)CC1 (stereo not shown) [Compound 412]
- EC50: 1000 to 10000 nM

SMILES: Cc1cncnc1N1CCN(c2ccc(C(=O)NCCCN3CCCC3=O)cc2NC(=O)c2coc(C3CC3)n2)CC1 [Compound 413]
- EC50: 1000 to 10000 nM

SMILES: Cc1ccccc1C1=CCN(c2ccc(C(=O)NCCCN3CCCC3=O)cc2NC(=O)c2coc(C3CC3)n2)CC1 [Compound 414]
- EC50: 100 to 1000 nM

SMILES: Cc1ccccc1N1CCN(c2ccc(C(=O)NCCCN3CCCC3=O)cc2NC(=O)c2nccn2C)CC1 [Compound 415]
- EC50: > 10000 nM

SMILES: Cc1ccccc1N1CCN(c2ccc(C(=O)NCCCNC(=O)OC(C)(C)C)cc2NC(=O)c2coc(C3CC3)n2)CC1 [Compound 416]
- EC50: 100 to 1000 nM

SMILES: Cc1ccccc1N1CCN(c2ccc(C(=O)NCCCN)cc2NC(=O)c2coc(C3CC3)n2)CC1 [Compound 417]
- EC50: 1000 to 10000 nM

SMILES: Cc1ccccc1N1CCN(c2ccc(C(=O)NCCCC(=O)N(C)C)cc2NC(=O)c2coc(C3CC3)n2)CC1 [Compound 418]
- EC50: 100 to 1000 nM

SMILES: Cc1ccc(C(=O)Nc2cc(C(=O)NCCCN3CCCC3=O)ccc2N2CCN(c3ncncc3C)CC2)o1 [Compound 419]
- EC50: > 10000 nM

SMILES: Cc1cncnc1N1CCN(c2ccc(C(=O)NCCCN3CCCC3=O)cc2NC(=O)c2ccco2)CC1 [Compound 420]
- EC50: > 10000 nM

SMILES: Cc1ccccc1N1CCN(c2ccc(C(=O)NCCCN3CCCC3=O)cc2NC(=O)c2cncn2C)CC1 [Compound 421]
- EC50: > 10000 nM

SMILES: Cc1ccccc1N1CCN(c2ccc(C(=O)NCCCN3CCCC3=O)cc2NC(=O)c2coc(CN(C)C)n2)CC1 [Compound 422]
- EC50: > 10000 nM

SMILES: Cc1ccc(C(=O)Nc2cc(C(=O)NCCCN3CCCC3=O)ccc2N2CCC(N(C)c3ccccc3)CC2)o1 [Compound 423]
- EC50: > 10000 nM

SMILES: CC(=O)NCCOCCOCCNC(=O)c1ccc(N2CCN(c3ccccc3C)CC2)c(NC(=O)c2coc(C3CC3)n2)c1 [Compound 424]
- EC50: 100 to 1000 nM

SMILES: Cc1ccccc1N1CCN(c2ccc(C(=O)NCCCNC(=O)NC(C)C)cc2NC(=O)c2coc(C3CC3)n2)CC1 [Compound 425]
- EC50: 100 to 1000 nM

SMILES: C=CCNC(=O)NCCCNC(=O)c1ccc(N2CCN(c3ccccc3C)CC2)c(NC(=O)c2coc(C3CC3)n2)c1 [Compound 426]
- EC50: 100 to 1000 nM

SMILES: CCCCNC(=O)NCCCNC(=O)c1ccc(N2CCN(c3ccccc3C)CC2)c(NC(=O)c2coc(C3CC3)n2)c1 [Compound 427]
- EC50: 100 to 1000 nM

SMILES: Cc1ccccc1N1CCN(c2ccc(C(=O)NCCCNC(=O)Nc3ccc(C(F)(F)F)cc3)cc2NC(=O)c2coc(C3CC3)n2)CC1 [Compound 428]
- EC50: > 10000 nM

SMILES: Cc1ccccc1N1CCN(c2ccc(C(=O)NCCCN3CCCC3=O)cc2NCc2cccc3cccnc23)CC1 [Compound 429]
- EC50: 100 to 1000 nM

SMILES: Cc1cnc(CCCNC(=O)c2ccc(N3CCN(c4ccccc4C)CC3)c(NC(=O)c3coc(C4CC4)n3)c2)s1 [Compound 430]
- EC50: 100 to 1000 nM

SMILES: O=C(NCCCN1CCCC1=O)c1ccc(N2CCN(C(=O)C3CC3)CC2)c(NC(=O)c2coc(C3CC3)n2)c1 [Compound 431]
- EC50: > 10000 nM

SMILES: CC(C)C(=O)N1CCN(c2ccc(C(=O)NCCCN3CCCC3=O)cc2NC(=O)c2coc(C3CC3)n2)CC1 [Compound 432]
- EC50: 1000 to 10000 nM

SMILES: CCCNC(=O)NCCCNC(=O)c1ccc(N2CCN(c3ccccc3C)CC2)c(NC(=O)c2coc(C3CC3)n2)c1 [Compound 433]
- EC50: 100 to 1000 nM

SMILES: Cc1ccccc1N1CCN(c2ccc(C(=O)NCCCNC(=O)c3ccccc3)cc2NC(=O)c2coc(C3CC3)n2)CC1 [Compound 434]
- EC50: 100 to 1000 nM

SMILES: Cc1ccccc1N1CCN(c2ccc(C(=O)NCCCN3CCCC3=O)cc2NC(=O)c2coc(C3CC3)n2)CC1 [Compound 436]
- EC50: 100 to 1000 nM

SMILES: Cc1ccccc1N1CCN(c2ccc(C(=O)NCCc3cccc(CN(C)C)c3)cc2NC(=O)c2ccco2)CC1 [Compound 437]
- EC50: 100 to 1000 nM

SMILES: Cc1noc(CCCNC(=O)c2ccc(N3CCN(c4ccccc4C)CC3)c(NC(=O)c3coc(C4CC4)n3)c2)n1 [Compound 438]
- EC50: 100 to 1000 nM

SMILES: Cc1cccnc1N1CCN(c2ccc(C(=O)NCCCN3CCCC3=O)cc2NC(=O)c2coc(C3CC3)n2)CC1 [Compound 439]
- EC50: < 100 nM

SMILES: Cc1ccccc1N1CCN(c2ccc(C(=O)NCCCN3CCCC3=O)cc2NC(=O)c2ncc[nH]2)CC1 [Compound 440]
- EC50: 100 to 1000 nM

SMILES: Cc1ccccc1N1CCN(c2ccc(C(=O)NCCCNC(=O)C3CCOCC3)cc2NC(=O)c2coc(C3CC3)n2)CC1 [Compound 441]
- EC50: < 100 nM

SMILES: Cc1ccccc1N1CCN(c2ccc(C(=O)NCCCNC(=O)c3ccncc3)cc2NC(=O)c2coc(C3CC3)n2)CC1 [Compound 442]
- EC50: 100 to 1000 nM

SMILES: Cc1cccc(C(=O)NCCCNC(=O)c2ccc(N3CCN(c4ccccc4C)CC3)c(NC(=O)c3coc(C4CC4)n3)c2)n1 [Compound 443]
- EC50: 100 to 1000 nM

SMILES: Cc1cccnc1N1CCN(c2ccc(C(=O)NCCc3c[nH]cn3)cc2NC(=O)c2coc(C3CC3)n2)CC1 [Compound 444]
- EC50: 100 to 1000 nM

SMILES: CCC(=O)NCCCNC(=O)c1ccc(N2CCN(c3ccccc3C)CC2)c(NC(=O)c2coc(C3CC3)n2)c1 [Compound 445]
- EC50: < 100 nM

SMILES: Cc1ccccc1N1CCN(c2ccc(C(=O)NCCCNC(=O)C(C)C)cc2NC(=O)c2coc(C3CC3)n2)CC1 [Compound 446]
- EC50: 100 to 1000 nM

SMILES: Cc1ccccc1N1CCN(c2ccc(C(=O)NCCCNC(=O)C3CC3)cc2NC(=O)c2coc(C3CC3)n2)CC1 [Compound 447]
- EC50: 100 to 1000 nM

SMILES: Cc1ccccc1N1CCN(c2ccc(C(=O)NCCCNC(=O)C3CCC3)cc2NC(=O)c2coc(C3CC3)n2)CC1 [Compound 448]
- EC50: 100 to 1000 nM

SMILES: Cc1ccccc1N1CCN(c2ccc(C(=O)NCCCN3CCCC3=O)cc2NC(=O)c2ccc(C3CC3)o2)CC1 [Compound 449]
- EC50: 100 to 1000 nM

SMILES: Cc1ccccc1N1CCN(c2ccc(C(=O)NCCCN3CCCC3=O)cc2NC(=O)C(F)(F)F)CC1 [Compound 451]
- EC50: 100 to 1000 nM

SMILES: Cc1cnccc1N1CCN(c2ccc(C(=O)NCCCN3CCCC3=O)cc2NC(=O)c2coc(C3CC3)n2)CC1 [Compound 452]
- EC50: 1000 to 10000 nM

SMILES: Cc1ccccc1N1CCN(c2ccc(C(=O)NCCC#N)cc2NC(=O)c2coc(C3CC3)n2)CC1 [Compound 453]
- EC50: 100 to 1000 nM

SMILES: Cc1ccccc1N1CCN(c2ccc(C(=O)NCc3cccc(CN4CCCC4)c3)cc2NC(=O)c2ccco2)CC1 [Compound 454]
- EC50: 100 to 1000 nM

SMILES: Cc1ccccc1N1CCN(c2ccc(C(=O)NCc3ccc(CN(C)C)cc3)cc2NC(=O)c2ccco2)CC1 [Compound 455]
- EC50: 100 to 1000 nM

SMILES: Cc1ccccc1N1CCN(c2ccc(C(=O)NCc3ccccc3CN(C)C)cc2NC(=O)c2ccco2)CC1 [Compound 456]
- EC50: 100 to 1000 nM

SMILES: Cc1cnccc1N1CCN(c2ccc(C(=O)NCCc3cnc[nH]3)cc2NC(=O)c2coc(C3CC3)n2)CC1 [Compound 457]
- EC50: 1000 to 10000 nM

SMILES: Cc1cncnc1N1CCN(c2ccc(C(=O)NCCCN3CCOC3=O)cc2NC(=O)c2coc(C3CC3)n2)CC1 [Compound 460]
- EC50: 100 to 1000 nM

SMILES: Cc1ccccc1N1CCN(c2ccc(C(=O)NCCCN3CCC(O)C3)cc2NC(=O)c2coc(C3CC3)n2)CC1 (stereo not shown) [Compound 461]
- EC50: 100 to 1000 nM

SMILES: Cc1cncnc1N1CCN(c2ccc(C(=O)NCCc3cn(C)cn3)cc2NC(=O)c2coc(C3CC3)n2)CC1 [Compound 462]
- EC50: 1000 to 10000 nM

SMILES: Cc1ccc(C(=O)Nc2cc(C(=O)NCCCN3CCCC3=O)ccc2N2CCN(c3ncccc3C)CC2)o1 [Compound 463]
- EC50: 100 to 1000 nM

SMILES: Cc1ccc(C(=O)Nc2cc(C(=O)NCCc3cn(C)cn3)ccc2N2CCN(c3ncccc3C)CC2)o1 [Compound 464]
- EC50: 1000 to 10000 nM

SMILES: Cc1ccccc1N1CCN(c2ccc(C(=O)NCc3cccc(CN(C)C)n3)cc2NC(=O)c2coc(C3CC3)n2)CC1 [Compound 465]
- EC50: 100 to 1000 nM

SMILES: Cc1ccccc1N1CCN(c2ccc(C(=O)NCCCN3CCCC3=O)cc2NC(=O)c2nnc(C3CC3)o2)CC1 [Compound 466]
- EC50: 1000 to 10000 nM

SMILES: Cc1ccccc1N1CCN(c2ccc(C(=O)NCC(O)CN3CCCC3=O)cc2NC(=O)c2ccco2)CC1 (stereo not shown) [Compound 467]
- EC50: < 100 nM

SMILES: Cc1ccccc1N1CCN(c2ccc(C(=O)NCCCN3CCNC3=O)cc2NC(=O)c2ccco2)CC1 [Compound 468]
- EC50: < 100 nM

SMILES: Cc1ccccc1N1CCN(c2ccc(C(=O)NCCCc3cccnc3)cc2NC(=O)c2ccco2)CC1 [Compound 469]
- EC50: 100 to 1000 nM

SMILES: Cc1ccccc1N1CCN(c2ccc(C(=O)NCCCN3CCCCC3=O)cc2NC(=O)c2ccco2)CC1 [Compound 470]
- EC50: 100 to 1000 nM

SMILES: Cc1ccccc1N1CCN(c2ccc(C(=O)NCc3cccc(CN4CCOCC4)c3)cc2NC(=O)c2ccco2)CC1 [Compound 471]
- EC50: 100 to 1000 nM

SMILES: Cc1ccccc1N1CCN(c2ccc(C(=O)NCCCCN3CCOCC3)cc2NC(=O)c2coc(C3CC3)n2)CC1 [Compound 472]
- EC50: 100 to 1000 nM

SMILES: CCN(CC)Cc1cccc(CNC(=O)c2ccc(N3CCN(c4ccccc4C)CC3)c(NC(=O)c3ccco3)c2)c1 [Compound 473]
- EC50: 100 to 1000 nM

SMILES: Cc1ccccc1N1CCN(c2ccc(C(=O)NCc3cccc(CN(C)C)n3)cc2NC(=O)c2ccco2)CC1 [Compound 474]
- EC50: < 100 nM

SMILES: Cc1ccc(C(=O)Nc2cc(C(=O)NCCCN3CCCC3=O)ccc2N2CCN(c3ccncc3C)CC2)o1 [Compound 475]
- EC50: > 10000 nM

SMILES: Cc1ccccc1N1CCN(c2ccc(C(=O)NCCCN3C(=O)[C@H]4C[C@@H]3C(O)C4O)cc2NC(=O)c2ccco2)CC1 (stereo partly shown) [Compound 477]
- EC50: < 100 nM

Reference: patent publication US9938262B2, “Benzamides” (Merck Patent GmbH, priority 2011, dated 2018)
